Where “and” joins values, the source holds several entries; their conditions need not be identical. Equal values may be shown once.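 1) Cells in 96-well plates. 2) Compound, 48 h, 5 concentrations. 3) Linear interpolation between surrounding doses. 4) Unreached endpoint = highest concentration. Here, GI50 denotes the concentration required for 50% inhibition of growth.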 Calls of active or inactive are those of the source. Rule as the data show it: active = GI50 up to about 1.1 µM and inactive = higher. Peptide text beside a SMILES is read from it. * marks the point of attachment. Boc = CC(C)(C)OC(=O)*
Key:
Assay in all cases: NCI-60 cell line screen, 48 h
A549 = test system: A549
MOLT-4 = test system: MOLT-4
NCI-H23 = test system: NCI-H23
OVCAR-5 = test system: OVCAR-5
MCF7 = test system: MCF7
MDA-MB-231 = test system: MDA-MB-231
HCT-116 = test system: HCT-116
HL-60 = test system: HL-60
SK-MEL-28 = test system: SK-MEL-28
IGROV-1 = test system: IGROV-1
NCI/ADR-RES = test system: NCI/ADR-RES
A498 = test system: A498
KM12 = test system: KM12
OVCAR-8 = test system: OVCAR-8
SK-MEL-5 = test system: SK-MEL-5
SK-OV-3 = test system: SK-OV-3
Malme-3M = test system: Malme-3M
MDA-MB-435 = test system: MDA-MB-435
LOX IMVI = test system: LOX IMVI
HOP-62 = test system: HOP-62

Row | SMILES | GI50 (A549) | GI50 (MOLT-4) | GI50 (NCI-H23) | GI50 (OVCAR-5) | GI50 (MCF7) | GI50 (MDA-MB-231) | GI50 (HCT-116) | GI50 (HL-60) | GI50 (SK-MEL-28) | GI50 (IGROV-1) | GI50 (NCI/ADR-RES) | GI50 (A498) | GI50 (KM12) | GI50 (OVCAR-8) | GI50 (SK-MEL-5) | GI50 (SK-OV-3) | GI50 (Malme-3M) | GI50 (MDA-MB-435) | GI50 (LOX IMVI) | GI50 (HOP-62)
1 | Nc1ncnc2c1nc(Cl)n2C1OC(CO)C(O)C1O (stereo unspecified) | 0.991 µM (active) | 0.474 µM (active) | 1.95 µM (inactive) | 2.28 µM (inactive) | 0.562 µM (active) | 6.95 µM (inactive) | 0.352 µM (active) | 0.181 µM (active) | > 45.5 µM (inactive) | 0.653 µM (active) | 1.41 µM (inactive) | 4.52 µM (inactive) | 2.04 µM (inactive) | 1.11 µM (active) | 3.25 µM (inactive) | 2.74 µM (inactive) | 27.2 µM (inactive) | 2.21 µM (inactive) | 0.424 µM (active) | 8.28 µM (inactive)
2 | COC(=O)C1=CS/C(=C2\S[C@@H]3[C@H](S2)[C@H]2C=C[C@@H]3C2)S1 | 30.8 µM (inactive) | 5.19 µM (inactive) | > 100 µM (inactive) |  | 10.9 µM (inactive) | > 100 µM (inactive) | 8.09 µM (inactive) | 9.82 µM (inactive) | 62.7 µM (inactive) | 39.2 µM (inactive) | 9.66 µM (inactive) | 4.52 µM (inactive) | > 100 µM (inactive) | > 100 µM (inactive) | 17.9 µM (inactive) | 47 µM (inactive) | > 100 µM (inactive) | 2.06 µM (inactive) | 13.1 µM (inactive) | > 100 µM (inactive)
3 | CC1=NN=C(C)C1/N=N/c1ccc2[nH]c(C)nc2c1 | 27.4 µM (inactive) | 13.7 µM (inactive) | 37.3 µM (inactive) | 26.2 µM (inactive) | 28.7 µM (inactive) | 28.6 µM (inactive) | 10.9 µM (inactive) | 10.8 µM (inactive) | 35.6 µM (inactive) | 5.62 µM (inactive) | 38.4 µM (inactive) | 8.39 µM (inactive) | 35.4 µM (inactive) | 15.9 µM (inactive) | 18.2 µM (inactive) | 5.27 µM (inactive) | 6.85 µM (inactive) | 16.2 µM (inactive) | 9.1 µM (inactive) | 26.4 µM (inactive)
4 | NC(=S)N/N=C1\CCc2ccccc2C1 | > 100 µM (inactive) | > 100 µM (inactive) | > 100 µM (inactive) | > 100 µM (inactive) | 54.2 µM (inactive) | > 100 µM (inactive) | > 100 µM (inactive) | 34.7 µM (inactive) | > 100 µM (inactive) | > 100 µM (inactive) | > 100 µM (inactive) | > 100 µM (inactive) | > 100 µM (inactive) | > 100 µM (inactive) |  | > 100 µM (inactive) | > 100 µM (inactive) | > 100 µM (inactive) | > 100 µM (inactive) | > 100 µM (inactive)
5 | O=C1/C(=C\c2cccc(Oc3ccccc3)c2)S(=O)(=O)C(c2ccccc2)N1Cc1ccccc1 (stereo unspecified) | 49.2 µM (inactive) | 0.83 µM (active) | 28 µM (inactive) | 57 µM (inactive) | 39.1 µM (inactive) | 25.6 µM (inactive) | 31 µM (inactive) | 11.7 µM (inactive) | 29.8 µM (inactive) |  | 19.4 µM (inactive) | 19.3 µM (inactive) | 23.1 µM (inactive) | 17.8 µM (inactive) | 18.5 µM (inactive) | > 100 µM (inactive) | 18.4 µM (inactive) | 32.3 µM (inactive) | 25.1 µM (inactive) | 26.5 µM (inactive)
6 | COc1ccc(/C=C2\C[C@H]3[C@@H]4CC=C5C[C@@H](O)CC[C@]5(C)[C@H]4CC[C@]3(C)\C2=N\O)cc1 | 7.98 µM (inactive) | 5.89 µM (inactive) | 16.9 µM (inactive) |  | 3.62 µM (inactive) | 35.2 µM (inactive) | 5.35 µM (inactive) | 3.17 µM (inactive) | 24.2 µM (inactive) | 38.2 µM (inactive) | 19.4 µM (inactive) | 25.9 µM (inactive) | 16.8 µM (inactive) |  | 5.04 µM (inactive) | 34.9 µM (inactive) | 24.9 µM (inactive) | 10.5 µM (inactive) | 11.6 µM (inactive) | 55.6 µM (inactive)
7 | C(=N\NC1=NCCCN1)/c1ccc(-c2cn3cc(/C=N/NC4=NCCCN4)ccc3n2)cc1 | 24.6 µM (inactive) | 5.73 µM (inactive) | > 100 µM (inactive) | > 100 µM (inactive) | 32 µM (inactive) | > 72.6 µM (inactive) | > 88.3 µM (inactive) | 20.7 µM (inactive) | > 100 µM (inactive) | 50.6 µM (inactive) | > 100 µM (inactive) | > 41.7 µM (inactive) | > 58.1 µM (inactive) | > 50.2 µM (inactive) | > 100 µM (inactive) | > 100 µM (inactive) | 19 µM (inactive) | > 100 µM (inactive) | > 100 µM (inactive) | > 79.8 µM (inactive)
8 | O=C(O)c1cc2ccccc2c(O)c1O | 19.8 µM (inactive) | 27.5 µM (inactive) | 7.29 µM (inactive) | 16.9 µM (inactive) | 13.5 µM (inactive) | 17.7 µM (inactive) | 16.8 µM (inactive) | 19.4 µM (inactive) | 7.03 µM (inactive) | 20.2 µM (inactive) | 19.4 µM (inactive) | 26.9 µM (inactive) | 16.3 µM (inactive) | 12.6 µM (inactive) | 2.92 µM (inactive) | 14.8 µM (inactive) | 1.8 µM (inactive) | 1.85 µM (inactive) | 3.52 µM (inactive) | 18.9 µM (inactive)
9 | CC(=O)OCC1OC(SC2=NC(=O)CS2)C(OC(C)=O)C(OC(C)=O)C1OC(C)=O (stereo unspecified) | > 100 µM (inactive) | 57.7 µM (inactive) and 51.8 µM (inactive) | > 100 µM (inactive) | > 100 µM (inactive) | 71.4 µM (inactive) | > 100 µM (inactive) |  | 26.7 µM (inactive) and 23.4 µM (inactive) | > 100 µM (inactive) | > 100 µM (inactive) | > 100 µM (inactive) | > 100 µM (inactive) | > 100 µM (inactive) | > 100 µM (inactive) | > 100 µM (inactive) | > 100 µM (inactive) | > 100 µM (inactive) | > 100 µM (inactive) | > 100 µM (inactive) | > 100 µM (inactive)
10 | COc1ccc(/C=C2\CCC(C)C3=C2NC(=S)NC3c2ccc(OC)c(OC)c2)cc1OC (stereo unspecified) | 16.9 µM (inactive) | 4.99 µM (inactive) | > 10 µM (inactive) | > 31.6 µM (inactive) | 14.9 µM (inactive) | 18.2 µM (inactive) | 15.3 µM (inactive) | 3.6 µM (inactive) | > 31.6 µM (inactive) | 13.6 µM (inactive) | 27.5 µM (inactive) | > 31.6 µM (inactive) | 12 µM (inactive) | 26.1 µM (inactive) | 12.5 µM (inactive) | 29.9 µM (inactive) | > 10 µM (inactive) | 6.3 µM (inactive) | 17.4 µM (inactive) | > 100 µM (inactive)
11 | O=C1C(N2CCCC2)=CC(=O)c2c(O)c(N3CCCC3)c(Cl)c(O)c21 | > 10 µM (inactive) | > 10 µM (inactive) | > 10 µM (inactive) |  | > 10 µM (inactive) | > 10 µM (inactive) | > 10 µM (inactive) | > 10 µM (inactive) | > 10 µM (inactive) | > 10 µM (inactive) | > 10 µM (inactive) | > 10 µM (inactive) | > 10 µM (inactive) |  | > 10 µM (inactive) | > 10 µM (inactive) | > 10 µM (inactive) | > 10 µM (inactive) | > 10 µM (inactive) | > 10 µM (inactive)
12 | Cc1cccc(C2ON=C(c3ccccc3)N2C23CC4CC(CC(C4)C2)C3)c1 (stereo unspecified) | > 10 µM (inactive) | > 10 µM (inactive) | > 10 µM (inactive) | > 10 µM (inactive) | 3.6 µM (inactive) | > 10 µM (inactive) | > 10 µM (inactive) | > 10 µM (inactive) | > 10 µM (inactive) | > 10 µM (inactive) | > 10 µM (inactive) | > 10 µM (inactive) | > 10 µM (inactive) | > 10 µM (inactive) | > 10 µM (inactive) | > 10 µM (inactive) | > 10 µM (inactive) | > 10 µM (inactive) | > 10 µM (inactive) | > 10 µM (inactive)
13 | COc1ccc(CNC(=O)[C@H](Cc2ccc(O)cn2)NC(C)=O)cc1OC | > 100 µM (inactive) | > 96.8 µM (inactive) | > 100 µM (inactive) | > 100 µM (inactive) | > 100 µM (inactive) | > 100 µM (inactive) | > 100 µM (inactive) | > 100 µM (inactive) | > 100 µM (inactive) | > 100 µM (inactive) | > 100 µM (inactive) | > 100 µM (inactive) | > 100 µM (inactive) | > 100 µM (inactive) | > 100 µM (inactive) | > 100 µM (inactive) | > 100 µM (inactive) | > 100 µM (inactive) | > 100 µM (inactive) | > 100 µM (inactive)
14 | CSCCC(NC(=O)C(CC(C)C)NC(=O)CNC(=O)OC(C)(C)C)C(=O)N(C)C (stereo not drawn) (Boc-Gly-Leu-Met-NMe2; configuration not given here) | > 100 µM (inactive) | > 100 µM (inactive) | > 100 µM (inactive) | > 100 µM (inactive) | > 100 µM (inactive) | > 100 µM (inactive) | > 100 µM (inactive) | > 100 µM (inactive) | > 100 µM (inactive) | > 100 µM (inactive) | > 100 µM (inactive) | > 100 µM (inactive) | > 100 µM (inactive) | > 100 µM (inactive) | > 100 µM (inactive) | > 100 µM (inactive) | 87.7 µM (inactive) | > 100 µM (inactive) | > 100 µM (inactive) | 
